Measurements: EPA's ToxRefDB 2

Tests used:
[1] = test system: mouse; conditions: Subchronic oral toxicity in rodents, cd1, Feed, dose end: 13 week, group: systemic
[2] = test system: dog; conditions: Chronic toxicity; beagle; Oral; Capsule; dose end: 52 week; group: systemic; systemic / in life observation / clinical signs / excitation + systemic / in life observation / clinical signs / hypersensitivity + systemic…
[3] = test system: rat; conditions: Subchronic oral toxicity in rodents, sprague dawley, Feed, dose end: 13 week, group: systemic
[4] = test system: rat; conditions: Prenatal developmental toxicity study, sprague dawley, Oral, Gavage/Intubation, dose end: 15 GD
[5] = test system: mouse; conditions: Subchronic oral toxicity in rodents, other, Feed, dose end: 90 day, group: systemic, systemic / in life observation / clinical signs / aggressive behavior + systemic / in life observation / clinical signs / irritability + …
[6] = test system: rat; conditions: Combined chronic toxicity/carcinogenicity, sprague dawley, Oral, Feed, dose end: 2 year, group: systemic
[7] = test system: mouse; conditions: Carcinogenicity, cd1, Oral, Feed, dose end: 78 week, group: systemic
[8] = test system: dog; conditions: Subchronic oral toxicity in nonrodent, beagle, Capsule, dose end: 13 week, group: systemic
[9] = test system: rat; conditions: Subchronic oral toxicity in rodents, other, Gavage/Intubation, dose end: 92 day, group: systemic, systemic / in life observation / clinical signs / respiration (rales) + systemic / in life observation / mortality / mortality + systemic / …
[10] = test system: rabbit; conditions: Sub-acute dermal toxicity, new zealand white, Topical, dose end: 21 day, group: systemic, systemic / in life observation / clinical signs / erythema + systemic / pathology gross / skin / discolored + systemic / pathology gross / …
[11] = test system: rat; conditions: Sub-acute dermal toxicity, sprague dawley, Topical, dose end: 28 day, group: systemic
[12] = test system: dog; conditions: Chronic toxicity; beagle; Oral; Feed; dose end: 52 week; group: systemic; systemic / clinical chemistry / cholesterol / cholesterol
[13] = test system: hamster; conditions: Multigenerational reproductive toxicity study, golden syrian, Oral, Gavage/Intubation, dose end: 1 generation
[14] = test system: dog; conditions: Subchronic oral toxicity in nonrodent, beagle, Feed, dose end: 13 week, group: systemic
[15] = test system: rat; conditions: Prenatal developmental toxicity study, other, Oral, Gavage/Intubation, dose end: 16 GD
[16] = test system: dog; conditions: Chronic toxicity; beagle; Oral; Feed; dose end: 24 month; group: systemic; systemic / clinical chemistry / alanine aminotransferase (alt/sgpt) / alanine aminotransferase (alt/sgpt) + systemic / clinical chemistry / …
[17] = test system: rat; conditions: Multigenerational reproductive toxicity study, long evans, Oral, Gavage/Intubation, dose end: 1 generation
[18] = systemic / pathology microscopic / liver / hypertrophy + systemic / pathology microscopic / liver / vacuolization cytoplasmic
[19] = systemic / clinical chemistry / urea nitrogen / urea nitrogen + systemic / clinical chemistry / aspartate aminotransferase (ast/sgot) / …
[20] = group: developmental, developmental / developmental malformation / bone / incomplete ossification + systemic / in life observation / body weight / fetal weight
[21] = group: maternal, systemic / in life observation / body weight / body weight gain + systemic / in life observation / food consumption / food consumption + …
[22] = systemic / clinical chemistry / albumin / albumin + systemic / clinical chemistry / albumin-globulin ratio / albumin-globulin ratio + …
[23] = systemic / organ weight / brain / relative to body weight + systemic / organ weight / spleen / absolute + systemic / organ weight / thyroid …
[24] = systemic / organ weight / liver / relative to body weight + systemic / pathology microscopic / liver / vacuolization + systemic / in life …
[25] = systemic / in life observation / body weight / body weight gain + systemic / in life observation / clinical signs / anorexia
[26] = systemic / in life observation / body weight / body weight gain + systemic / in life observation / clinical signs / anorexia + systemic / in…
[27] = systemic / pathology microscopic / epididymis / hypospermia + systemic / pathology microscopic / testes / degeneration
[28] = systemic / pathology microscopic / epididymis / hypospermia + systemic / pathology microscopic / testes / degeneration + systemic / …
[29] = group: offspring, systemic / in life observation / body weight / offspring (pup) weight
[30] = group: parental, systemic / pathology gross / kidney / enlarged + systemic / pathology gross / liver / enlarged + systemic / pathology gross / sperm measure…
[31] = systemic / in life observation / food consumption / food consumption + systemic / clinical chemistry / cholesterol / cholesterol + systemic…
[32] = group: developmental, developmental / developmental malformation / bone / bipartite ossification + developmental / developmental malformation / bone / dumbbell …
[33] = group: maternal, systemic / organ weight / liver / absolute
[34] = group: parental, systemic / organ weight / epididymis / absolute + systemic / organ weight / testes / absolute + systemic / pathology gross / sperm measure…
[35] = group: parental, systemic / pathology gross / sperm measure / sperm count + systemic / pathology microscopic / testes / atrophy
[36] = group: reproductive, reproductive / reproductive performance / pregnancy / pregnancy + reproductive / reproductive performance / resorptions / resorptions + …

`N#Cc1nn(-c2c(Cl)cc(C(F)(F)F)cc2Cl)c(N)c1S(=O)C(F)(F)F` (centres undefined) [Fipronil] gave an LOAEL ([1]; systemic / in life observation / body weight / body weight gain) of 3.2 mg/kg/day, an NOAEL ([1]; systemic / in life observation / body weight / body weight gain + systemic / organ weight / liver / absolute + systemic / organ weight / …) of 1.27 mg/kg/day and an LEL [1, 18] of 0.13 mg/kg/day. The NEL [1, 18] was < 0.13 mg/kg/day, the LEL [2] was 2 mg/kg/day and the LOAEL [2] was 2 mg/kg/day. It also gave an NEL [2] of 0.2 mg/kg/day, an NOAEL [2] of 0.2 mg/kg/day and an LOAEL ([3]; systemic / clinical chemistry / protein / protein) of 1.93 mg/kg/day. For the same compound, the NOAEL ([3]; systemic / clinical chemistry / protein / protein + systemic / clinical chemistry / albumin-globulin ratio / albumin-globulin ratio + …) was 0.33 mg/kg/day, the LEL [3, 19] was 0.07 mg/kg/day and the NEL [3, 19] was < 0.07 mg/kg/day. It also gave an LOAEL ([4]; group: developmental, developmental / developmental malformation / bone / incomplete ossification) of 2.5 mg/kg/day, an LEL [4, 20] of 2.5 mg/kg/day and an NEL [4, 20] of 1 mg/kg/day. It also gave an NOAEL [4, 20] of 1 mg/kg/day, an LEL [4, 21] of 2.5 mg/kg/day and an LOAEL [4, 21] of 2.5 mg/kg/day. It also gave an NEL [4, 21] of 1 mg/kg/day, an NOAEL [4, 21] of 1 mg/kg/day and an LEL [5] of 0.32 mg/kg/day. It also gave an LOAEL [5] of 0.32 mg/kg/day, an NEL [5] of 0.08 mg/kg/day and an NOAEL [5] of 0.08 mg/kg/day. For the same compound, the LOAEL [6, 22] was 0.059 mg/kg/day, the NOAEL [6, 22] was 0.019 mg/kg/day and the LEL [6, 23] was 0.019 mg/kg/day. For the same compound, the NEL [6, 23] was < 0.019 mg/kg/day, the LEL ([7]; systemic / organ weight / liver / relative to body weight) was 0.055 mg/kg/day and the LOAEL [7, 24] was 1.18 mg/kg/day. The NEL [7, 24] was 0.011 mg/kg/day, the NOAEL [7, 24] was 0.055 mg/kg/day and the LEL [8, 25] was 2 mg/kg/day. It also gave an LOAEL [8, 25] of 2 mg/kg/day, an NEL [8, 26] of 0.5 mg/kg/day and an NOAEL [8, 26] of 0.5 mg/kg/day.
`O=C(CBr)c1ccc(O)cc1` [2-Bromo-4-hydroxyacetophenone] showed an LEL [9] of 30 mg/kg/day, an LOAEL [9] of 30 mg/kg/day and an NEL [9] of 6 mg/kg/day. It also gave an NOAEL [9] of 6 mg/kg/day, an LEL [10] of 20 mg/kg/day and an LOAEL [10] of 20 mg/kg/day. For the same compound, the NEL [10] was < 20 mg/kg/day and the NOAEL [10] was < 20 mg/kg/day.
`COC(=O)Nc1nc2ccccc2[nH]1` [Carbendazim] gave an LEL [11, 27] of 120 mg/kg/day, an LOAEL [11, 27] of 120 mg/kg/day and an NEL [11, 28] of 20 mg/kg/day. It also gave an NOAEL [11, 28] of 20 mg/kg/day, an LEL [12] of 16.5 mg/kg/day and an LOAEL [12] of 16.5 mg/kg/day. It also gave an NEL [12] of 6.43 mg/kg/day, an NOAEL [12] of 6.43 mg/kg/day and an LEL [13, 29] of 400 mg/kg/day. The LOAEL [13, 29] was > 400 mg/kg/day, the NEL [13, 29] was < 400 mg/kg/day and the NOAEL [13, 29] was ≥ 400 mg/kg/day. For the same compound, the LEL [13, 30] was 400 mg/kg/day, the LOAEL [13, 30] was > 400 mg/kg/day and the NEL [13, 30] was < 400 mg/kg/day. For the same compound, the NOAEL [13, 30] was ≥ 400 mg/kg/day, the LOAEL ([14]; systemic / clinical chemistry / cholesterol / cholesterol + systemic / pathology microscopic / liver / [other]) was 35 mg/kg/day and the LEL ([14]; systemic / in life observation / food consumption / food consumption + systemic / clinical chemistry / cholesterol / cholesterol) was 11.3 mg/kg/day. For the same compound, the NEL [14, 31] was 2.7 mg/kg/day, the NOAEL [14, 31] was 11.3 mg/kg/day and the LEL [15, 32] was 20 mg/kg/day. For the same compound, the LOAEL [15, 32] was 20 mg/kg/day, the NEL [15, 32] was 10 mg/kg/day and the NOAEL [15, 32] was 10 mg/kg/day. The LOAEL [15, 33] was 90 mg/kg/day, the NEL [15, 33] was 20 mg/kg/day and the NOAEL [15, 33] was 20 mg/kg/day. It also gave an LEL ([15]; group: maternal, systemic / organ weight / liver / absolute + reproductive / offspring survival early / live fetuses / live fetuses + reproductive / …) of 90 mg/kg/day, an LEL [16] of 12.5 mg/kg/day and an LOAEL [16] of 12.5 mg/kg/day. For the same compound, the NEL [16] was 2.5 mg/kg/day, the NOAEL [16] was 2.5 mg/kg/day and the LOAEL [17, 34] was > 400 mg/kg/day. The NOAEL [17, 34] was ≥ 400 mg/kg/day, the LEL [17, 35] was 50 mg/kg/day and the NEL [17, 35] was < 50 mg/kg/day. For the same compound, the LEL ([17]; group: reproductive, reproductive / reproductive performance / pregnancy / pregnancy + reproductive / offspring survival early / litter viability other / litter …) was 200 mg/kg/day, the NEL ([17]; group: reproductive, reproductive / reproductive performance / pregnancy / pregnancy + reproductive / reproductive performance / resorptions / resorptions) was 100 mg/kg/day and the LOAEL [17, 36] was > 400 mg/kg/day. The NOAEL [17, 36] was ≥ 400 mg/kg/day.
